Test results published in patent publication US20170190671A1, “BIS(ARYL)CATECHOL DERIVATIVES AS HERBICIDES” (E I DU PONT DE NEMOURS AND COMPANY, priority 2014, published 2017).

Columns and labels:
[1] = tested on: galium (catchweed bedstraw, Galium aparine); assay: Test C preemergence; assay type: in vivo; settings: Galium, pre-emergence, 336 h, preemergence, scale 0 to 100, read-out: Plant response rating, Galium; for pest or weed control at 31 g/ha: 31 g ai/ha; for pest or weed control at 62 g/ha: 62 g ai/ha; for pest or weed control at 125 g/ha: 125 g ai/ha
Procedure, shortened: (§1)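 Steps: plant seeds in loam-sand soil and treat preemergence, or grow plants in peat-based medium to 2-18 cm and spray; compound formulated in non-phytotoxic solvent/surfactant; hold in greenhouse 13-15 days; score visually versus controls from 0 (no effect) to 100 (complete control).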

[2] = tested on: ragweed (common ragweed, Ambrosia elatior); assay: Test C preemergence; assay type: in vivo; settings: Ambrosia artemisiifolia, pre-emergence, 336 h, preemergence, scale 0 to 100, read-out: Plant response rating, Ragweed; for pest or weed control at 31 g/ha: 31 g ai/ha; for pest or weed control at 62 g/ha: 62 g ai/ha; for pest or weed control at 125 g/ha: 125 g ai/ha; for pest or weed control at 250 g/ha: 250 g ai/ha
Procedure, shortened: as §1

[3] = tested on: barnyardgrass (Echinochloa crus-galli); assay: Test C preemergence; assay type: in vivo; settings: Echinochloa crus-galli, pre-emergence, preemergence, scale 0 to 100, read-out: Plant response rating, Barnyardgrass; for pest or weed control at 31 g/ha: 31 g ai/ha; for pest or weed control at 62 g/ha: 62 g ai/ha; for pest or weed control at 125 g/ha: 125 g ai/ha; for pest or weed control at 250 g/ha: 250 g ai/ha
Procedure, shortened: as §1

[4] = tested on: waterhemp (common waterhemp, Amaranthus rudis); assay: Test C preemergence; assay type: in vivo; settings: Amaranthus tuberculatus, pre-emergence, preemergence, scale 0 to 100, read-out: Plant response rating, Waterhemp; for pest or weed control at 31 g/ha: 31 g ai/ha; for pest or weed control at 62 g/ha: 62 g ai/ha; for pest or weed control at 125 g/ha: 125 g ai/ha; for pest or weed control at 250 g/ha: 250 g ai/ha
Procedure, shortened: as §1

[5] = tested on: Italian ryegrass (Lolium multiflorum); assay: Test C preemergence; assay type: in vivo; settings: Lolium multiflorum, pre-emergence, 336 h, preemergence, scale 0 to 100, read-out: Plant response rating, Ryegrass, Italian; for pest or weed control at 31 g/ha: 31 g ai/ha; for pest or weed control at 62 g/ha: 62 g ai/ha; for pest or weed control at 125 g/ha: 125 g ai/ha; for pest or weed control at 250 g/ha: 250 g ai/ha
Procedure, shortened: as §1

[6] = tested on: lambsquarters (Chenopodium album); assay: Test C preemergence; assay type: in vivo; settings: Chenopodium album, pre-emergence, 336 h, preemergence, scale 0 to 100, read-out: Plant response rating, Lambsquarters; for pest or weed control at 31 g/ha: 31 g ai/ha; for pest or weed control at 62 g/ha: 62 g ai/ha; for pest or weed control at 125 g/ha: 125 g ai/ha
Procedure, shortened: as §1

[7] = tested on: blackgrass (Alopecurus myosuroides); assay: Test C preemergence; assay type: in vivo; settings: Alopecurus myosuroides, pre-emergence, 336 h, preemergence, scale 0 to 100, read-out: Plant response rating, Blackgrass; for pest or weed control at 31 g/ha: 31 g ai/ha; for pest or weed control at 62 g/ha: 62 g ai/ha; for pest or weed control at 125 g/ha: 125 g ai/ha
Procedure, shortened: as §1

[8] = tested on: morningglory (Ipomoea coccinea); assay: Test C preemergence; assay type: in vivo; settings: Ipomoea, pre-emergence, 336 h, preemergence, scale 0 to 100, read-out: Plant response rating, Morningglory; for pest or weed control at 31 g/ha: 31 g ai/ha; for pest or weed control at 62 g/ha: 62 g ai/ha; for pest or weed control at 125 g/ha: 125 g ai/ha
Procedure, shortened: as §1

[9] = tested on: velvetleaf (Abutilon theophrasti); assay: Test C preemergence; assay type: in vivo; settings: Abutilon theophrasti, pre-emergence, preemergence, scale 0 to 100, read-out: Plant response rating, Velvetleaf; for pest or weed control at 31 g/ha: 31 g ai/ha; for pest or weed control at 62 g/ha: 62 g ai/ha; for pest or weed control at 125 g/ha: 125 g ai/ha; for pest or weed control at 250 g/ha: 250 g ai/ha
Procedure, shortened: as §1

corn (Zea mays) = assay: Test C preemergence; assay type: in vivo; settings: Zea mays, pre-emergence, 336 h, preemergence, scale 0 to 100; for Corn plant response rating (crop injury, 0 = no effect, 100 = complete kill) at 31 g/ha: 31 g ai/ha; for Corn plant response rating (crop injury, 0 = no effect, 100 = complete kill) at 62 g/ha: 62 g ai/ha; for Corn plant response rating (crop injury, 0 = no effect, 100 = complete kill) at 125 g/ha: 125 g ai/ha
Procedure, shortened: as §1

[10] = tested on: pigweed (Amaranthus retroflexus); assay: Test C preemergence; assay type: in vivo; settings: Amaranthus retroflexus, pre-emergence, 336 h, preemergence, scale 0 to 100, read-out: Plant response rating, Pigweed; for pest or weed control at 31 g/ha: 31 g ai/ha; for pest or weed control at 62 g/ha: 62 g ai/ha; for pest or weed control at 125 g/ha: 125 g ai/ha
Procedure, shortened: as §1

[11] = tested on: johnsongrass (Sorghum halepense); assay: Test C preemergence; assay type: in vivo; settings: Sorghum halepense, pre-emergence, 336 h, preemergence, scale 0 to 100, read-out: Plant response rating, Johnsongrass; for pest or weed control at 31 g/ha: 31 g ai/ha; for pest or weed control at 62 g/ha: 62 g ai/ha; for pest or weed control at 125 g/ha: 125 g ai/ha
Procedure, shortened: as §1

soybean (Glycine max) = assay: Test C preemergence; assay type: in vivo; settings: Glycine max, pre-emergence, preemergence, scale 0 to 100, read-out: Plant response rating, Soybean; for plant injury at 31 g/ha: 31 g ai/ha; for plant injury at 250 g/ha: 250 g ai/ha
Procedure, shortened: as §1

[12] = tested on: yellow nutsedge (Cyperus esculentus); assay: Test C preemergence; assay type: in vivo; settings: Cyperus, pre-emergence, 336 h, preemergence, scale 0 to 100, read-out: Plant response rating, Nutsedge, Yellow; for pest or weed control at 31 g/ha: 31 g ai/ha; for pest or weed control at 62 g/ha: 62 g ai/ha; for pest or weed control at 125 g/ha: 125 g ai/ha
Procedure, shortened: as §1

Compound `Fc1cnc(Oc2c(F)cccc2Oc2ncc(Cl)cn2)nc1` [Compound 23] has a pest or weed control at 31 g/ha [1] of 100%, a pest or weed control at 62 g/ha [1] of 100% and a pest or weed control at 125 g/ha [1] of 100%. It also gave a pest or weed control at 31 g/ha [2] of 85%, a pest or weed control at 62 g/ha [2] of 100% and a pest or weed control at 125 g/ha [2] of 100%. For the same compound, the pest or weed control at 250 g/ha [2] was 100%, the pest or weed control at 31 g/ha [3] was 75% and the pest or weed control at 62 g/ha [3] was 100%. It also gave a pest or weed control at 125 g/ha [3] of 100%, a pest or weed control at 250 g/ha [3] of 100% and a pest or weed control at 31 g/ha [4] of 100%. It also gave a pest or weed control at 62 g/ha [4] of 100%, a pest or weed control at 125 g/ha [4] of 100% and a pest or weed control at 250 g/ha [4] of 100%. It also gave a pest or weed control at 31 g/ha [5] of 5%, a pest or weed control at 62 g/ha [5] of 75% and a pest or weed control at 125 g/ha [5] of 85%. For the same compound, the pest or weed control at 250 g/ha [5] was 90%, the pest or weed control at 31 g/ha [6] was 100% and the pest or weed control at 62 g/ha [6] was 100%. The pest or weed control at 125 g/ha [6] was 100%, the pest or weed control at 31 g/ha [7] was 65% and the pest or weed control at 62 g/ha [7] was 85%. It also gave a pest or weed control at 125 g/ha [7] of 95%, a pest or weed control at 31 g/ha [8] of 45% and a pest or weed control at 62 g/ha [8] of 85%. The pest or weed control at 125 g/ha [8] was 98%, the pest or weed control at 31 g/ha [9] was 100% and the pest or weed control at 62 g/ha [9] was 100%. For the same compound, the pest or weed control at 125 g/ha [9] was 100%, the pest or weed control at 250 g/ha [9] was 100% and the Corn plant response rating (crop injury, 0 = no effect, 100 = complete kill) at 31 g/ha (corn (Zea mays)) was 5%. The Corn plant response rating (crop injury, 0 = no effect, 100 = complete kill) at 62 g/ha (corn (Zea mays)) was 35%, the Corn plant response rating (crop injury, 0 = no effect, 100 = complete kill) at 125 g/ha (corn (Zea mays)) was 70% and the pest or weed control at 31 g/ha [10] was 100%. The pest or weed control at 62 g/ha [10] was 100%, the pest or weed control at 125 g/ha [10] was 100% and the pest or weed control at 31 g/ha [11] was 40%. For the same compound, the pest or weed control at 62 g/ha [11] was 50%, the pest or weed control at 125 g/ha [11] was 90% and the plant injury at 31 g/ha (soybean (Glycine max)) was 60%. It also gave a plant injury at 62 g/ha (soybean (Glycine max); 62 g ai/ha) of 80%, a plant injury at 125 g/ha (soybean (Glycine max); 125 g ai/ha) of 90% and a plant injury at 250 g/ha (soybean (Glycine max)) of 95%. It also gave a pest or weed control at 31 g/ha [12] of 0%, a pest or weed control at 62 g/ha [12] of 10% and a pest or weed control at 125 g/ha [12] of 60%. The melting point was 141 to 145 °C.

Work on `Fc1cccc(Oc2ncc(Cl)cn2)c1Oc1ncc(Br)cn1` [Compound 27, 5-bromo-2-[2-fluoro-6-[(5-chloro-2-pyrimidinyl)oxy]phenoxy]pyrimidine] yielded a pest or weed control at 31 g/ha [1] of 100%, a pest or weed control at 62 g/ha [1] of 100% and a pest or weed control at 125 g/ha [1] of 100%. It also gave a pest or weed control at 31 g/ha [2] of 20%, a pest or weed control at 62 g/ha [2] of 60% and a pest or weed control at 125 g/ha [2] of 70%. It also gave a pest or weed control at 250 g/ha [2] of 85%, a pest or weed control at 31 g/ha [3] of 55% and a pest or weed control at 62 g/ha [3] of 100%. The pest or weed control at 125 g/ha [3] was 100%, the pest or weed control at 250 g/ha [3] was 100% and the pest or weed control at 31 g/ha [4] was 100%. It also gave a pest or weed control at 62 g/ha [4] of 100%, a pest or weed control at 125 g/ha [4] of 100% and a pest or weed control at 250 g/ha [4] of 100%. It also gave a pest or weed control at 31 g/ha [5] of 10%, a pest or weed control at 62 g/ha [5] of 55% and a pest or weed control at 125 g/ha [5] of 80%. The pest or weed control at 250 g/ha [5] was 95%, the pest or weed control at 31 g/ha [6] was 80% and the pest or weed control at 62 g/ha [6] was 85%. It also gave a pest or weed control at 125 g/ha [6] of 100%, a pest or weed control at 31 g/ha [7] of 15% and a pest or weed control at 62 g/ha [7] of 60%. It also gave a pest or weed control at 125 g/ha [7] of 90%, a pest or weed control at 31 g/ha [8] of 5% and a pest or weed control at 62 g/ha [8] of 40%. For the same compound, the pest or weed control at 125 g/ha [8] was 98%, the pest or weed control at 31 g/ha [9] was 60% and the pest or weed control at 62 g/ha [9] was 95%. For the same compound, the pest or weed control at 125 g/ha [9] was 100%, the pest or weed control at 250 g/ha [9] was 100% and the Corn plant response rating (crop injury, 0 = no effect, 100 = complete kill) at 31 g/ha (corn (Zea mays)) was 10%. It also gave a Corn plant response rating (crop injury, 0 = no effect, 100 = complete kill) at 62 g/ha (corn (Zea mays)) of 45%, a Corn plant response rating (crop injury, 0 = no effect, 100 = complete kill) at 125 g/ha (corn (Zea mays)) of 60% and a pest or weed control at 31 g/ha [10] of 100%. The pest or weed control at 62 g/ha [10] was 100%, the pest or weed control at 125 g/ha [10] was 100% and the pest or weed control at 31 g/ha [11] was 25%. It also gave a pest or weed control at 62 g/ha [11] of 55%, a pest or weed control at 125 g/ha [11] of 75% and a plant injury at 31 g/ha (soybean (Glycine max)) of 40%. The plant injury at 250 g/ha (soybean (Glycine max)) was 90%, the pest or weed control at 31 g/ha [12] was 0% and the pest or weed control at 62 g/ha [12] was 0%. The pest or weed control at 125 g/ha [12] was 55% and the melting point was 145 to 148 °C.
